Values of other authors in patent US20090048181A1, “Combination therapy with glatiramer acetate and n-acetylcysteine for the treatment of multiple sclerosis” (priority 2004, published 2009).

Key:
[1] = system: EAE, a murine model of multiple sclerosis
TNF-α = conditions: ten human patients suffering from multiple sclerosis; efficacy could not be ascertained
[2] = system: relapsing-remitting multiple sclerosis; conditions: daily subcutaneous injections, 20 mg/injection

| Compound | induction of EAE ([1]; SJL/J mice, oral administration) | effect in animals with established EAE ([1]; established EAE, correlated with treatment in a dose-related manner) | TNF-α level (TNF-α) | appearance of "black holes" [2] | appearance of new lesions by magnetic resonance imaging (MRI) [2] | progression of disability [2] | relapse rates [2] |
| --- | --- | --- | --- | --- | --- | --- | --- |
| CC(=O)N[C@@H](CS)C(=O)O [N-acetylcysteine] | attenuated | improvement | elevation | – | – | – | – |
| L-glutamic acid polymer with L-alanine, L-lysine and L-tyrosine, acetate (salt) [glatiramer acetate] | – | – | – | reduce | reduce | reduce | reduce |
